The test system of assay [1] is Rabbit Anti-SFV polyclonal antibody. The experiment in a line: Indirect ELISA of rabbit anti-SFV polyclonal IgG against viral and myelin antigens. It is filed as binding. How it is done: The total IgG fraction was commercially prepared (Strategic Biosolutions, Ramona, Calif.) from pooled sera of 3 rabbits immunized once with UV-inactivated SFV (A774 strain) emulsified in CFA and boosted 3 times with antigen in IFA at weeks 3, 5, and 7. The IgG fraction of the pooled antisera was purified by ion-exchange chromatography and contained 8.7 mg IgG/ml of PBS. Antibody activities to SFV and peptides of SFV, to E2, and to recombinant ® MOG and its peptides were confirmed by ELISA. Normal rabbit IgG, isolated from pooled normal rabbit sera by ion-exchange chromatography (Signa Chemical Co., St. Louis, Mo.), was dissolved in saline. Protein concentration was determined by the Bradford assay (Sigma), using normal rabbit IgG as the standard. The IgG solutions were diluted to 3 mg protein/ml in saline and sterilized by passage through a 0.22 μm filter (Millipore Corp., Bedford, Mass.).
To measure the antibody response of both WT and γδ KO mice against SFV and two of the peptides of the SFV envelope protein, E2, an indirect ELISA was performed. Sera were pooled from 4-6 SFV-infected WT, and 3 KO, mice on days 0, 7, 14, 21 and 35 pi. Briefly, Immunolon 2HB 96 well microtiter plates (VWR, Bridge Port, N.J.) were coated with 1 μg/well of each antigen in 100 μl/well carbonate buffer overnight at room temperature. After washing, the plates were blocked and serum samples were added. […] After washing, biotinylated goat anti-mouse Igs (BD Pharmingen, Torreyana, Calif.), Strepavidin conjugated to Horse Radish Peroxidase (Vector Laboratories, Burlingame, Calif.), and OPD substrate (Sigma, St. Louis, Mo.) were used, as previously described (4, 9). […] Values were considered to be positive when they were >0.3 OD units and exceeded the mean value plus three standard deviations for antibody response on day 0 pi of mice of the same strain.
The polyclonal rabbit anti SFV antibody was commercially prepared (Strategic Biosolutions, Ramona, Calif.) from pooled sera of 3 rabbits, immunized once with UV-inactivated SFV (A774 strain) emulsified in CFA and boosted 3 times with antigen in IFA at weeks 3, 5, and 7.
Background: ELISA stands for enzyme-linked immunosorbent assay.

Assay [2] has as its system SFV-infected TCR γδ-KO and WT mice. The experiment in a line: Clinical scores of SFV-infected, E2 137-151 immunized TCR γδ-KO and WT mice. Format: in vivo. Conditions: 0.5 mg/injection (25 mg/kg) sc in IFA, scale 0-VI. The method, then: FIG. 5 Comparison of Clinical Scores (±SEM) of SFV-infected E2 137-151 peptide-immunized, and non-immunized TCR γδ-KO and WT mice, on different days post infection. Data shown is the average of two experiments with a total of 15 WT, 15 KO mice, and 10 immunized KO mice (only 5-10 KO mice could be obtained at each time point). SFV-infected KO mice were immunized subcutaneously with E2 137-151 (0.5 mg/injection or 25 mg/kg, based on the average weight of 20 g/mouse) in IFA, one day after SFV-infection. Additional inoculations of E2 137-151/IFA were performed on days 5, 15, and 20. Mice were sacrificed on days 7, 15, 21, and 35 pi. Clinical scores of sacrificed and dead animals have been considered in average calculation until the end of experiments on day 35. […] Data from E2-137-immunized WT mice is not shown (p=NS).
Method—Five-week old C57B16 (B6) WT and KO mice (Jackson Laboratories, Bar Harbor, Mass.) were infected with SFV, and KO mice were immunized subcutaneously with E2-137-151 (0.5 mg/injection or 25 mg/kg, based on the average weight of 20 g/mouse) in IFA, one day after SFV-infection. Additional inoculations of E2 137-151/IFA were performed on days 5 and 15 for KO mice only. Animals were observed daily for clinical manifestations of disease and were scored on a scale of 0-VI. 0=no abnormality; I-mild hind limb weakness (some difficulty righting themselves when turned on their back); II=moderate hind limb weakness, sometimes associated with floppy tail; III=weakness of hind limbs accompanied by some forelimb weakness, sometimes more marked on one limb or one side, but not complete paralysis; IV=hind limb paresis accompanied by mild forelimb weakness; V=paralysis of hind limbs, associated with moderate forelimb weakness; and VI=quadriplegia, moribund.

For `CC[C@H](C)[C@H](NC(=O)[C@H](CCC(=O)O)NC(=O)[C@H](CCCCN)NC(=O)CNC(=O)[C@H](Cc1ccc(O)cc1)NC(=O)[C@H](Cc1c[nH]cn1)NC(=O)[C@@H]1CCCN1C(=O)[C@H](CCCNC(=N)N)NC(=O)[C@@H](NC(=O)[C@@H](NC(=O)[C@H](Cc1ccccc1)NC(=O)[C@H](CCCCN)NC(=O)[C@H](CCC(=O)O)NC(=O)[C@H](CCCNC(=N)N)NC(=O)CN)[C@@H](C)O)[C@@H](C)CC)C(=O)O` [E2 137-151], in assay [1] (10^−2 diluted, indirect ELISA), the “Rabbit Anti-SFV Ab, OD at 490 nm” value is given as 1.107 OD. Besides, the “Immunoreactivity of IgG fraction of serum from rabbits immunized with UV-inactivated SFV” value in assay [1] (ELISA) is listed as “strong immunoreactivity”. Also, the “OD Difference” value in assay [1] (Rabbit Anti-SFV Ab minus Normal Rabbit Serum) was 0.934 OD. Further, the “Average clinical score / severity of disease, immunized KO compared with non-immunized KO mice” value in assay [2] (listed as E2 137-151 peptide, 25 mg/kg) is “significantly suppressed”; in assay [2] (listed as E2-137, 25 mg/kg), “nonimmunized <E2-137 immunized KO mice”; in assay [2] (listed as E2-137-151, 25 mg/kg), “decreased significantly”.

Source of the values: patent publication US20090311246A1, “Method of Enhancing Remyelination in Demyelinating Diseases of the Central Nervous System” (priority 2008, published 2009).
